Our source for the IC50 values is US11535621B2, “Heterobicyclic amides as inhibitors of CD38” (Ribon Therapeutics, Inc., priority 2019, dated 2022).

Human CD38, sequence (P28907 whole entry): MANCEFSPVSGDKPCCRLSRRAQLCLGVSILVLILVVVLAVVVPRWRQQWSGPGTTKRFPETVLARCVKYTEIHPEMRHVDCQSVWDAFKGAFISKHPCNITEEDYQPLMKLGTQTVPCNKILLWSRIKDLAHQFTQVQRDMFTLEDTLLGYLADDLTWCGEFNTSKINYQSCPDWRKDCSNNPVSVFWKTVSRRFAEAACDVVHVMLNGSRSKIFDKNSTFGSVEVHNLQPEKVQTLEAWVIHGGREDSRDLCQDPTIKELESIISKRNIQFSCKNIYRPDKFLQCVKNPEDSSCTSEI

In this assay the target is Human CD38 (Homo sapiens (Human), UniProt P28907). Description: CD38 enzyme assay. The assay is classed as biochemical. To be noted: 2 nM CD38, NAD+ substrate, absorbance at 405 nm. An excerpt:
[formula] where SUBcmpd is the subtracted value for the individual compound treated well, SUBmin is the average of the subtracted values of the 4-(((1r,4r)-4-(2-methoxyethoxy)cyclohexyl)amino)-1-methyl-6-(thiazol-5-yl)quinolin-2(1H)-one positive control wells and SUBmax is the average of the subtracted values of the DMSO negative control wells.
The % inhibition values were plotted as a function of compound concentration and the following 4-parameter fit was applied to derive the IC50 values:
[formula] where top and bottom are normally allowed to float, but may be fixed at 100 or 0 respectively in a 3-parameter fit. The Hill Coefficient is normally allowed to float but may also be fixed at 1 in a 3-parameter fit. Y is the % inhibition and X is the compound concentration.
By IC50 is commonly meant the concentration that gives 50% inhibition. Lower therefore signals higher potency. Consider `COCCO[C@H]1C[C@H](NC(=O)c2nc(-n3ccnc3)nc3cc[nH]c23)C1` [Example 65, 2-(1H-Imidazol-1-yl)-N-((1r,3r)-3-(2-methoxyethoxy)cyclobutyl)-5H-pyrrolo[3,2-d]pyrimidine-4-carboxamide], for which the half-inhibitory concentration (IC50) lay within 10 to 100 nM.
Next, `CO[C@H]1C[C@H](NC(=O)c2nc(-n3ccnc3)nc3cc[nH]c23)C1` [Example 66, 2-(1H-Imidazol-1-yl)-N-((1r,3r)-3-methoxycyclobutyl)-5H-pyrrolo[3,2-d]pyrimidine-4-carboxamide]: 10 to 100 nM.
The molecule `O=C(NC1CCN(CCC(F)(F)F)C1)c1nc(-n2ccnc2)nc2cc[nH]c12` (stereo not drawn) [Example 67, 2-(1H-Imidazol-1-yl)-N-(1-(3,3,3-trifluoropropyl)pyrrolidin-3-yl)-5H-pyrrolo[3,2-d]pyrimidine-4-carboxamide] showed an IC50 of 10 to 100 nM.
As for `O=C(NC1CCN(CC(F)(F)F)C1)c1nc(-n2ccnc2)nc2cc[nH]c12` (stereo not drawn) [Example 68, 2-(1H-Imidazol-1-yl)-N-(1-(2,2,2-trifluoroethyl)pyrrolidin-3-yl)-5H-pyrrolo[3,2-d]pyrimidine-4-carboxamide], the figure is 10 to 100 nM; as for `COCCO[C@H]1CC[C@@H](NC(=O)c2nc(-n3ccnc3)nc3cc[nH]c23)CC1` [Example 69, 2-(1H-Imidazol-1-yl)-N-((1s,4s)-4-(2-methoxyethoxy)cyclohexyl)-5H-pyrrolo[3,2-d]pyrimidine-4-carboxamide], 10 to 100 nM; as for `CNC(=O)c1nc(-n2ccnc2)nc2cc[nH]c12` [Example 70, 2-(1H-Imidazol-1-yl)-N-methyl-5H-pyrrolo[3,2-d]pyrimidine-4-carboxamide], 100 to 1000 nM.
As for `CNCCO[C@H]1CC[C@H](NC(=O)c2nc(-n3ccnc3)nc3cc[nH]c23)CC1` [Example 71, 2-(1H-Imidazol-1-yl)-N-((1r,4r)-4-(2-(methylamino)ethoxy)cyclohexyl)-5H-pyrrolo[3,2-d]pyrimidine-4-carboxamide], the IC50 lay in the range of 10 to 100 nM.
Next, `CN(C)CCO[C@H]1CC[C@H](NC(=O)c2nc(-n3ccnc3)nc3cc[nH]c23)CC1` [Example 72, N-((1r,4r)-4-(2-(Dimethylamino)ethoxy)cyclohexyl)-2-(1H-imidazol-1-yl)-5H-pyrrolo[3,2-d]pyrimidine-4-carboxamide]: 10 to 100 nM.
As for `O=C(NC1CCNC1)c1nc(-n2ccnc2)nc2cc[nH]c12` (stereo not drawn) [Example 73, 2-(1H-Imidazol-1-yl)-N-(pyrrolidin-3-yl)-5H-pyrrolo[3,2-d]pyrimidine-4-carboxamide], the figure is 100 to 1000 nM; as for `CN1CCC(NC(=O)c2nc(-n3ccnc3)nc3cc[nH]c23)C1` (stereo not drawn) [Example 74, 2-(1H-Imidazol-1-yl)-N-(1-methylpyrrolidin-3-yl)-5H-pyrrolo[3,2-d]pyrimidine-4-carboxamide], 100 to 1000 nM.
Next, `CS(=O)(=O)N1CCC(NC(=O)c2nc(-n3ccnc3)nc3cc[nH]c23)CC1` [Example 75, 2-(1H-Imidazol-1-yl)-N-(1-(methylsulfonyl)piperidin-4-yl)-5H-pyrrolo[3,2-d]pyrimidine-4-carboxamide]: less than 10 nM.
In the case of `O=C(NC1CCN(C2COC2)CC1)c1nc(-n2ccnc2)nc2cc[nH]c12` [Example 76, 2-(1H-Imidazol-1-yl)-N-(1-(oxetan-3-yl)piperidin-4-yl)-5H-pyrrolo[3,2-d]pyrimidine-4-carboxamide], the IC50 was in the range of 10 to 100 nM.
Regarding `O=C(NC1CCC1)c1nc(-n2ccnc2)nc2cc[nH]c12` [Example 77, N-Cyclobutyl-2-(1H-imidazol-1-yl)-5H-pyrrolo[3,2-d]pyrimidine-4-carboxamide], the IC50 is less than 10 nM.
As for `O=C(NCC1CCCCC1)c1nc(-n2ccnc2)nc2cc[nH]c12` [Example 78, N-(Cyclohexylmethyl)-2-(1H-imidazol-1-yl)-5H-pyrrolo[3,2-d]pyrimidine-4-carboxamide], the figure is 10 to 100 nM; as for `O=C(NCc1ccccc1)c1nc(-n2ccnc2)nc2cc[nH]c12` [Example 79, N-Benzyl-2-(1H-imidazol-1-yl)-5H-pyrrolo[3,2-d]pyrimidine-4-carboxamide], 100 to 1000 nM.
